The structures appear in SMILES notation. “And” between values parts separate entries of the source, which are not always exact repeats. Equal values may be shown once. Read-outs that look alike come from different tables or passages of the source.

The text below walks through data of patent US7544814B2, “[3.2.0] Heterocyclic compounds and methods of using the same” (Nereus Pharmaceuticals, Inc., priority 2004, dated 2009).

The test system of data set [1] is NF-κB. Kind of data set: NF-κB-mediated luciferase reporter gene assay, HEK293 NF-κB/Luc cells, TNF-α stimulation. It is filed as cell-based, human. The settings on record: for EC50: Homo sapiens; for effect on luciferase activity upon TNF-α stimulation, in words: pretreatment of NF-κB/Luc 293 cells. The procedure, abridged: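 Cells seeded at 1.5×10^4/well in phenol-red free DMEM, pretreated 1 h with 8-point half-log compound dilutions (DMSO stocks), then stimulated with TNF-α (10 μl of 50 ng/ml solution) for 6 h. Luciferase read as RLU after 10 min with Steady Lite reagent at room temperature.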
Background: Reporter assays use an easily measured gene product as a stand-in for the process of interest.

In data set [2] the target is T1, trypsin-like activity of purified rabbit muscle 20S proteasome (Oryctolagus cuniculus, UniProt G1SWK8).
T1 sequence (G1SWK8 1-271): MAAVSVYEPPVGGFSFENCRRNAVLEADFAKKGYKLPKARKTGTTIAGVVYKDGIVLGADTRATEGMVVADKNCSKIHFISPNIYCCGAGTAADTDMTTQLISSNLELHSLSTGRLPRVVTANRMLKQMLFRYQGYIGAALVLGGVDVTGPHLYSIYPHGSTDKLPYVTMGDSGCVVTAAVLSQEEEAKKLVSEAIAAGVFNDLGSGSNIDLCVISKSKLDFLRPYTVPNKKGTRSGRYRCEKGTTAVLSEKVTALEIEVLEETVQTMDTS
Put plainly: biochemical.

Data set [3] concerns U266. Put plainly: Cell growth inhibition (resazurin), U266. Conditions: for EC50: 48 hours drug exposure; for cytotoxicity against U266, in words: from EC50 values. (In general: Alamar Blue is a resazurin reagent that responds to reducing activity.)
Data set [4] concerns RPMI 8226. Put plainly: Cell growth inhibition (resazurin), RPMI 8226. The settings on record: for EC50: Homo sapiens; for cytotoxicity against RPMI 8226, in words: from EC50 values.
The target of data set [5] is T2, caspase-like activity of purified rabbit muscle 20S proteasome (Oryctolagus cuniculus, UniProt A0A5F9DQW2).
T2 sequence (A0A5F9DQW2 1-212): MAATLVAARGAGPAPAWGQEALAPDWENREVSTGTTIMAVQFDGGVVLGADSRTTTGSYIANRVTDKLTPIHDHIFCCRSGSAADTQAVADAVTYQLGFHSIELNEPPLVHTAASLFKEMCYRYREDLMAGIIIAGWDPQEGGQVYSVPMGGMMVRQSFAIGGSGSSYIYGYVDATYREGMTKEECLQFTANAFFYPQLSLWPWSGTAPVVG
Kind of data set: In vitro inhibition of 20S proteasome caspase-like activity (Z-LLE-AMC).

Data set [6] has as its target T1, trypsin-like activity of purified rabbit muscle 20S proteasome. Kind of data set: In vitro inhibition of 20S proteasome trypsin-like activity (Boc-LRR-AMC). The settings on record: under the conditions tested.
Data set [7] concerns the target T3, chymotrypsin-like activity of purified rabbit muscle 20S proteasome (Oryctolagus cuniculus, UniProt G1T4Q9).
T3 sequence (G1T4Q9 1-263): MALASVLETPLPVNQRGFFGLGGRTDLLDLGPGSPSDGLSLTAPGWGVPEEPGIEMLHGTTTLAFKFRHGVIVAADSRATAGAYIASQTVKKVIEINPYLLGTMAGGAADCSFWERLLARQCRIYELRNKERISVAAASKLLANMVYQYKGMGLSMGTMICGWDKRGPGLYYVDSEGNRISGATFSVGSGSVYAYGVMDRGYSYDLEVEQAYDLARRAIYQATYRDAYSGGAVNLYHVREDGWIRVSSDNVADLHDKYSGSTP
Put plainly: In vitro inhibition of 20S proteasome chymotrypsin-like activity (suc-LLVY-AMC).

Data set [8] concerns HT-29. Put plainly: Cell growth inhibition (resazurin), HT-29. The settings on record: from EC50 values.
The test system of data set [9] is B16-F10. Kind of data set: Cell growth inhibition (resazurin), B16-F10. The settings on record: from EC50 values.
Data set [10] has as its system NCI-H292. Put plainly: Cell growth inhibition (resazurin), NCI-H292. The settings on record: from EC50 values.
[11] abbreviates: HEK293, read-out: NF-κB EC50, Table 12.
[12] abbreviates: RPMI-8226, read-out: Cytotoxicity RPMI EC50, Table 12.
Setting [13] is: Proteasome Caspase-like EC50, Table 12.
The mark [14] stands for this setting: EC50 Chymotrypsin-like, Table 6, values in nM.
Setting [15] is: Proteasome Chymotrypsin-like EC50, Table 12.

Take `C[C@H]1C(=O)N[C@@]2(C(O)[C@@H]3C=CCCC3)C(=O)O[C@@]12C` (single isomer, unassigned) [Formula II-20]: the half-maximal effective concentration (EC50) – broadly, the concentration giving half of the maximal effect – in data set [1] (setting [11]) is 849 ± 225 nM; in [2] it was 318 nM and 321 nM; in [3] (Homo sapiens, U-266, 48 h, read-out: U266 EC50, Table 2), 310 nM; in data set [3] (read-out: U266 EC50, Table 2) it was 442 nM; in [4] (RPMI-8226, 48 h, read-out: RPMI 8226 EC50, Table 2, 48 hours drug exposure, mean ± SD where n≥3) it was 8510 ± 3260 nM; in data set [4] (setting [12]) it was 8510 ± 3260 nM. The EC50 in data set [5] (EC50 Caspase-like, Table 6, values in μM) was 1.4 µM; in data set [5] (EC50 values, caspase-like activity, range in mixed units, summary of Table 6, range from nM to μM), 0.956 to 8.7 µM; in [5] (setting [13]), 1.42 µM; in data set [7] (setting [14]), 7.7 ± 3 nM; in [7] (setting [15]), 7.7 ± 3 nM. For the same compound, in data set [1], the “effect on luciferase activity upon TNF-α stimulation, in words” value was “dose-dependent decrease”. Also, the “cytotoxicity against U266, in words” value in data set [3] is listed as “cytotoxic”. The “cytotoxicity against RPMI 8226, in words” value in data set [4] is given as “cytotoxic”. Moreover, the “inhibition of the trypsin-like activity of the 20S proteasome, in words” value in data set [6] was “able to inhibit”.
Regarding `C[C@@]12OC(=O)[C@]1([C@@H](O)[C@@H]1C=CCCC1)NC(=O)[C@@H]2CCBr` [Formula II-18], the EC50 is 9 nM in data set [1] (HEK293, read-out: EC50, NF-κB-mediated luciferase reporter gene assay, Table 5, values in nM, 1 hr pretreatment, TNF-α 6 hr); 11 nM in data set [1] (setting [11]); 6.3 nM in data set [4] (setting [12]); 0.286 µM and 0.213 µM in data set [5] (EC50 Caspase-like, Table 6, values in nM); 0.213 to 0.85 µM in [5] (EC50 values, caspase-like activity, summary of Table 6); 0.286 µM and 0.213 µM in data set [5] (setting [13]). Moreover, the EC50 is 2.3 nM in data set [7] (setting [14]); 2 to 11 nM in data set [7] (EC50 values, chymotrypsin-like activity, summary of Table 6); 2.3 nM and 2 nM in data set [7] (setting [15]). Moreover, the “effect on luciferase activity upon TNF-α stimulation, in words” value in data set [1] is “dose-dependent decrease”. Moreover, the “cytotoxicity against U266, in words” value in data set [3] is on record as “cytotoxic”. For the same compound, the “cytotoxicity against HT-29, in words” value in data set [8] is “cytotoxic”. In data set [9], the “cytotoxicity against B16-F10, in words” value is given as “cytotoxic”. For the same compound, in [10], the “cytotoxicity against NCI-H292, in words” value is given as “cytotoxic”. Further, in [4], the “cytotoxicity against RPMI 8226, in words” value is recorded as “cytotoxic”. For the same compound, the “inhibition of the trypsin-like activity of the 20S proteasome, in words” value in data set [6] is reported as “able to inhibit”.
